Settings: K2CO3 5 mM, CH3CN:water (4:1), 1 hour

O=[N+]([O-])c1ccc(S(=O)(=O)Oc2ccccc2)c([N+](=O)[O-])c1 [probe 1, phenyl 2,4-dinitrobenzenesulfonate]
CD response with other L-amino acids (phenylalanine, alanine, serine, tyrosine) versus L-Cys (probe 2.50 mM, amino acid 1.25 mM): remained CD silent with the exception of the cysteine solution
CD response with biothiols L-homocysteine and L-glutathione (probe 2.5 mM, biothiol 1.25 mM): no induction of a CD signal

— patent publication US11852633B2 (priority 2017, dated 2023)
